Common to all, as to assay type: in vivo
In assay [1] the test system is Setaria faberi (SETFA). Kind of assay: Post-emergence biological efficacy (percentage damage). The note with it: Setaria faberi, 312 h, dose 1,000 g/ha, evaluated after 13 days, 100=total damage, 0=no damage. Put shortly: (§1)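 Percentage damage (0 no damage to 100 total) was assessed 13 days after spraying plants raised for 8 days in pots. Test compound was applied as an aqueous acetone/water (50:50) spray containing 0.5% Tween 20 to give 250 or 1000 g/ha.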

Assay [2] has as its system Solanum nigrum (SOLNI). The description is as above. The note with it: Solanum nigrum, 312 h, dose 1,000 g/ha, evaluated after 13 days, 100=total damage, 0=no damage. The method in brief: as §1
In assay [3] the test system is Echinochloa crus-galli (ECHCG). The assay is described as above. Conditions: Echinochloa crus-galli, 312 h, dose 1,000 g/ha, evaluated after 13 days, 100=total damage, 0=no damage. Put shortly:
as §1

Assay [4] deals with Alopecurus myosuroides (ALOMY). The assay is described as above. The note with it: Alopecurus myosuroides, 312 h, dose 1,000 g/ha, evaluated after 13 days, 100=total damage, 0=no damage. The method in brief: as §1
The test system of assay [5] is Amaranthus retoflexus (AMARE). Described as above. Conditions: Amaranthus retroflexus, 312 h, dose 1,000 g/ha, evaluated after 13 days, 100=total damage, 0=no damage. Put shortly:
as §1

In assay [6] the test system is Ipomea hederaceae (IPOHE). The assay is described as above. Conditions: Ipomoea hederacea, 312 h, dose 1,000 g/ha, evaluated after 13 days, 100=total damage, 0=no damage. Put shortly: as §1
Assay [7] concerns Setaria faberi (SETFA). Description: Pre-emergence biological efficacy (percentage damage). The note with it: Setaria faberi, 312 h, dose 1,000 g/ha, evaluated after 13 days, 100=total damage, 0=no damage. Put shortly: (§2)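 Seeds were sown in standard soil in pots and, one day later, sprayed with test compound at 250 or 1000 g/ha in acetone/water (50:50) with 0.5% Tween 20. Plants grew in a glasshouse at 24/16 °C day/night, 14 h light, 65% humidity; damage was scored after 13 days (0 = none, 100 = total).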

For assay [8], the system named is Solanum nigrum (SOLNI). The description is as above. Conditions: Solanum nigrum, 312 h, dose 1,000 g/ha, evaluated after 13 days, 100=total damage, 0=no damage. Put shortly: as §2
Assay [9] deals with Echinochloa crus-galli (ECHCG). The assay is described as above. The note with it: Echinochloa crus-galli, 312 h, dose 1,000 g/ha, evaluated after 13 days, 100=total damage, 0=no damage. Put shortly:
as §2

Assay [10] has as its system Alopecurus myosuroides (ALOMY). The description is as above. The note with it: Alopecurus myosuroides, 312 h, dose 1,000 g/ha, evaluated after 13 days, 100=total damage, 0=no damage. The method in brief:
as §2

Assay [11] has as its system Amaranthus retoflexus (AMARE). Described as above. Conditions: Amaranthus retroflexus, 312 h, dose 1,000 g/ha, evaluated after 13 days, 100=total damage, 0=no damage. Put shortly:
as §2

Assay [12] deals with Ipomea hederaceae (IPOHE). The assay is described as above. Conditions: Ipomoea hederacea, 312 h, dose 1,000 g/ha, evaluated after 13 days, 100=total damage, 0=no damage. Put shortly:
as §2

This passage reports pest or weed control results from patent publication US20120053053A1, “PYRIMIDINE DERIVATIVES AND THEIR USE AS HERBICIDES” (SYNGENTA CROP PROTECTION, LLC, priority 2009, published 2012).

On to `C=Cc1c(N)nc(-c2ccc(Cl)c(N(C)C)c2F)nc1C(=O)O` [Compound 33-21, 4-Amino-2-(4-chloro-3-dimethylamino-2-fluorophenyl)-5-ethenylpyrimidine-6-carboxylic acid], for which the pest or weed control at 1000 g/ha in the assay on Setaria faberi (SETFA) [1] came to 100%; in the assay on Solanum nigrum (SOLNI) [2] it was 90%; in assay [3], 100%; in [4], 90%; in assay [5], 100%; in assay [6], 70%. For the same molecule, the pest or weed control at 1000 g/ha with Setaria faberi (SETFA) [7] is 100%; with Solanum nigrum (SOLNI) [8], 100%; in assay [9], 100%; in assay [10], 90%; in [11], 100%; in assay [12], 80%.
As to `COC(=O)c1nc(-c2ccc(Cl)c(N(C)C)c2F)nc(N)c1C` [Compound 33-41], the pest or weed control at 1000 g/ha was 70% in the assay on Setaria faberi (SETFA) [1]; 70% in the assay on Solanum nigrum (SOLNI) [2]; 50% in assay [3]; 30% in assay [4]; 100% in assay [5]; 10% in assay [6]. Moreover, the pest or weed control at 1000 g/ha in the assay with Setaria faberi (SETFA) [7] amounted to 30%; in the assay on Solanum nigrum (SOLNI) [8], 30%; in [9], 10%; in [10], 10%; in [11], 20%; in assay [12], 0%.
`COC(=O)c1nc(-c2ccc(Cl)c(N(C)C)c2F)nc(N)c1C(C)=O` [Compound 33-53, 4-Amino-2-(4-chloro-3-dimethylamino-2-fluorophenyl)-6-methoxycarbonyl-5-methylcarbonyl-pyrimidine]: the pest or weed control at 1000 g/ha in the assay with Setaria faberi (SETFA) [1] is 20%; in the assay on Solanum nigrum (SOLNI) [2], 50%; in [3] it was 20%; in [4], 10%; in assay [5], 100%; in assay [6], 40%. Also, the pest or weed control at 1000 g/ha (in the assay with Setaria faberi (SETFA) [7]; with Solanum nigrum (SOLNI) [8]; in [9]; in assay [10]; in assay [11]; in [12]) was 0% throughout.
`C=Cc1c(N)nc(-c2ccc(Cl)c(N(C)C)c2F)nc1C(=O)OC` [Compound 33-61]: the pest or weed control at 1000 g/ha in the assay on Setaria faberi (SETFA) [1] stood at 30%; with Solanum nigrum (SOLNI) [2], 80%; in assay [3], 20%; in assay [4] it was 20%; in assay [5], 70%; in [6] it was 90%. For the same molecule, the pest or weed control at 1000 g/ha is 10% in the assay with Setaria faberi (SETFA) [7]; 30% with Solanum nigrum (SOLNI) [8]; 0% in assay [9]; 0% in assay [10]; 50% in assay [11]; 40% in assay [12].
With `C=C(C)c1c(N)nc(-c2ccc(Cl)c(N(C)C)c2F)nc1C(=O)OC` [Compound 33-64, 4-Amino-2-(4-chloro-3-dimethylamino-2-fluorophenyl)-6-methoxycarbonyl-5-(prop-1-en-2-yl)-pyrimidine], the pest or weed control at 1000 g/ha with Setaria faberi (SETFA) [1] was determined as 0%; in the assay with Solanum nigrum (SOLNI) [2], 20%; in assay [3], 0%; in assay [4] it was 0%; in assay [5], 10%; in assay [6], 10%. The pest or weed control at 1000 g/ha (in the assay on Setaria faberi (SETFA) [7]; in the assay on Solanum nigrum (SOLNI) [8]; in assay [9]; in assay [10]; in assay [11]; in assay [12]) was 0% each time.
Turning to `C=C(OCC)c1c(N)nc(-c2ccc(Cl)c(N(C)C)c2F)nc1C(=O)OC` [Compound 33-67, 4-Amino-2-(4-chloro-3-dimethylamino-2-fluorophenyl)-5-(1-ethoxyethenyl)-6-methoxycarbonyl-pyrimidine], the pest or weed control at 1000 g/ha in the assay on Setaria faberi (SETFA) [1] came to 0%; in the assay with Solanum nigrum (SOLNI) [2], 40%; in assay [3] it was 0%; in [4] it was 0%; in assay [5], 10%; in [6], 20%. For the same molecule, the pest or weed control at 1000 g/ha came out at 0% in the assay with Setaria faberi (SETFA) [7]; 0% in the assay on Solanum nigrum (SOLNI) [8]; 0% in [9]; 0% in assay [10]; 0% in assay [11]; 10% in [12].
Turning to `C=Cc1c(N)nc(-c2ccc(Cl)c(N(C)C)c2F)nc1C(=O)OCC` [Compound 33-101, 4-amino-2-(4-chloro-3-dimethylamino-2-fluorophenyl)-5-ethenyl-6-ethoxycarbonyl-pyrimidine], the pest or weed control at 1000 g/ha stood at 80% in the assay with Setaria faberi (SETFA) [1]; 90% in the assay on Solanum nigrum (SOLNI) [2]; 90% in [3]; 80% in assay [4]; 100% in assay [5]; 60% in assay [6]. The pest or weed control at 1000 g/ha with Setaria faberi (SETFA) [7] was 90%; with Solanum nigrum (SOLNI) [8] it was 90%; in assay [9], 90%; in assay [10], 60%; in assay [11], 100%; in assay [12] it was 30%.
For `C=Cc1c(N)nc(-c2ccc(Cl)c(N(C)C)c2F)nc1C(=O)OC(C)C` [Compound 33-306, 4-Amino-2-(4-chloro-3-dimethylamino-2-fluorophenyl)-5-ethenyl-6-isopropoxycarbon-yl-pyrimidine], the pest or weed control at 1000 g/ha amounted to 70% in the assay with Setaria faberi (SETFA) [1]; 100% in the assay with Solanum nigrum (SOLNI) [2]; 70% in assay [3]; 40% in assay [4]; 100% in assay [5]; 30% in assay [6]. Moreover, the pest or weed control at 1000 g/ha in the assay on Setaria faberi (SETFA) [7] was found to be 20%; in the assay with Solanum nigrum (SOLNI) [8], 80%; in assay [9], 20%; in assay [10], 20%; in assay [11], 40%; in assay [12], 0%.
As to `C=Cc1c(N)nc(-c2ccc(Cl)c(N(C)C)c2F)nc1C(=O)OCCC` [Compound 33-316], the pest or weed control at 1000 g/ha with Setaria faberi (SETFA) [1] turned out to be 90%; in the assay on Solanum nigrum (SOLNI) [2], 90%; in [3] it was 100%; in assay [4], 70%; in [5], 100%; in assay [6], 40%. In addition, the pest or weed control at 1000 g/ha in the assay with Setaria faberi (SETFA) [7] amounted to 70%; in the assay with Solanum nigrum (SOLNI) [8], 80%; in assay [9], 90%; in assay [10], 60%; in assay [11], 90%; in [12], 10%.
`C=Cc1c(N)nc(-c2ccc(Cl)c(N(C)C)c2F)nc1C(=O)OCC(C)C` [Compound 33-326, 4-Amino-2-(4-chloro-3-dimethylamino-2-fluorophenyl)-5-ethenyl-6-(2-methylpropoxy) carbonyl-pyrimidine]: the pest or weed control at 1000 g/ha amounted to 40% in the assay on Setaria faberi (SETFA) [1]; 90% in the assay on Solanum nigrum (SOLNI) [2]; 80% in [3]; 20% in assay [4]; 100% in assay [5]; 50% in assay [6]. The pest or weed control at 1000 g/ha with Setaria faberi (SETFA) [7] is 20%; with Solanum nigrum (SOLNI) [8], 60%; in [9], 40%; in assay [10], 20%; in assay [11] it was 60%; in assay [12], 10%.
